Data as given in patent US10988477B2 (Merck Patent GmbH, priority 2018, dated 2021).

Legend:
[1] = target: GCN2 kinase (Homo sapiens, UniProt Q9P2K8); assay: GCN2 enzyme inhibition assay (Transcreener ADP2 fluorescence polarization); assay type: biochemical; conditions: compounds of Formula II; 280 μM ATP, 4 nM GCN2 kinase
Method in brief: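 Kinase activity is followed as ADP formation, measured by fluorescence polarization, using 4 nM enzyme with 280 μM ATP and 200 μM (RS)7 peptide at pH 7.5 and 25 °C for 1 h. Values come from a non-linear tight-binding fit.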

[2] = target: intracellular GCN2 (phosphorylation of the GCN2 substrate eIF2α) (Homo sapiens, UniProt Q9P2K8); assay: GCN2 cellular inhibition assay (AlphaScreen SureFire P-eIF2α Ser51, borrelidin-treated U2OS cells); assay type: cell-based; conditions: compounds of Formula II; biomarker assay, phosphorylated eIF2α Ser51 in borrelidin-treated U2OS cells
Method in brief: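 U2OS cells adhered overnight, then treated with compounds (4-fold serial dilutions from 40 μM final) plus borrelidin 10 μM final for 1 h at 37 °C. Lysate eIF2α Ser51 phosphorylation measured by AlphaScreen SureFire. Percent inhibition calculated relative to borrelidin-only wells.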

Sequence of intracellular GCN2 (phosphorylation of the GCN2 substrate eIF2α) (Q9P2K8 whole entry): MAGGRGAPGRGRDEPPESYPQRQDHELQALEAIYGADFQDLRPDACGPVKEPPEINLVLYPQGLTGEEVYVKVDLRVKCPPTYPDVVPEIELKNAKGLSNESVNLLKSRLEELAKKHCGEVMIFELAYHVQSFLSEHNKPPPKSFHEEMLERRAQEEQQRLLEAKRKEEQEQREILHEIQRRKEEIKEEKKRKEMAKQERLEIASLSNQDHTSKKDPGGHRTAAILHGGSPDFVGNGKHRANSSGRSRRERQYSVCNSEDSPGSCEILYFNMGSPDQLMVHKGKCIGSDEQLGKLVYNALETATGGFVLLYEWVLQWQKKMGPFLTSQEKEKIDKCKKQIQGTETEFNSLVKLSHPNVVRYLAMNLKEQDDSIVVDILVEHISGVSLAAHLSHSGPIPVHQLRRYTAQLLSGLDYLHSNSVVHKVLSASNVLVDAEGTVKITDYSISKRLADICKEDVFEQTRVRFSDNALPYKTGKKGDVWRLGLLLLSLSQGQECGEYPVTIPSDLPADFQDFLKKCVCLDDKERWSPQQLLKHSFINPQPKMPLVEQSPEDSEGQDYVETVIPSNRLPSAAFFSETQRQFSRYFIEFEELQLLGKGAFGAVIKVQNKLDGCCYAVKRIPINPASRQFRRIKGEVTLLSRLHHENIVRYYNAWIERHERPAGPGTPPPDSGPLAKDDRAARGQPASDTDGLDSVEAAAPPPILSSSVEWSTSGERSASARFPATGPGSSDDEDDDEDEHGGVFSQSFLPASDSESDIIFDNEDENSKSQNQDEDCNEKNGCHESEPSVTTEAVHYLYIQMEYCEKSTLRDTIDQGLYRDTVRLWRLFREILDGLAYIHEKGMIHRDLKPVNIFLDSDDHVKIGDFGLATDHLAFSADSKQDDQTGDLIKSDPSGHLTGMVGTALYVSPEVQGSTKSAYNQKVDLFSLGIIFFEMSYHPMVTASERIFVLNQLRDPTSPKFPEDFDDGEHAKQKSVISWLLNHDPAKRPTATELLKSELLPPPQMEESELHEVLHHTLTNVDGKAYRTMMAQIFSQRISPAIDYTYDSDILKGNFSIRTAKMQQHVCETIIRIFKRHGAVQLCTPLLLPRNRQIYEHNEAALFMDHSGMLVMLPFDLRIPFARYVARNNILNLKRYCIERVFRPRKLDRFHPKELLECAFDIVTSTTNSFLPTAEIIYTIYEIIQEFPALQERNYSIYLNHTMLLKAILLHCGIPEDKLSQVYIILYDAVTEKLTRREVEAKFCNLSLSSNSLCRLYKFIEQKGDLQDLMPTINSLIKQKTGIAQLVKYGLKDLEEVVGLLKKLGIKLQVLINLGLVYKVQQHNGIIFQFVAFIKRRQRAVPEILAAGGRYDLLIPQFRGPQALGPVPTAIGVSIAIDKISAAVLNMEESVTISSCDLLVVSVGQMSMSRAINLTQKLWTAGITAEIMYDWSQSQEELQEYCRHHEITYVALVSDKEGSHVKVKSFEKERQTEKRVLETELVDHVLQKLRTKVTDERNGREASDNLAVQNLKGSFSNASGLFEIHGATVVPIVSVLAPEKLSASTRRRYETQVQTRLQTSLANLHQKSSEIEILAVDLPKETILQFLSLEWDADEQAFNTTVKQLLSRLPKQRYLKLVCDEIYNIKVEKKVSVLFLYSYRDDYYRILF
Sequence of GCN2 kinase (Q9P2K8 whole entry): as above

Ki [1] [nM] | IC50 [2] [nM] | SMILES
< 10 | < 500 | CS(=O)(=O)NC[C@H]1CCCN(c2cc(-c3cnc4ccc(C(F)F)nn34)ccn2)C1 [II-154, (S)—N-((1-(4-(6-(Difluoromethyl)imidazo[1,2-b]pyridazin-3-yl)pyridin-2-yl)piperidin-3-yl)methyl)methanesulfonamide]
10 to 1000 | 500 to 5000 | CS(=O)(=O)NC[C@@H]1CCCN(c2cc(-c3cnc4ccc(C(F)F)nn34)ccn2)C1 [II-155, (R)—N-((1-(4-(6-(Difluoromethyl)imidazo[1,2-b]pyridazin-3-yl)pyridin-2-yl)piperidin-3-yl)methyl)methanesulfonamide]
10 to 1000 | 500 to 5000 | O=C1NCCC12CCCN(c1cc(-c3cnc4ccc(C(F)F)nn34)ccn1)C2 (stereo not drawn) [II-156, 7-(4-(6-(Difluoromethyl)imidazo[1,2-b]pyridazin-3-yl)pyridin-2-yl)-2,7-diazaspiro[4.5]decan-1-one]
< 10 | < 500 | CS(=O)(=O)NCC1CCCN(c2cc(-c3cnc4ccc(C(F)F)nn34)ccn2)C1 (stereo not drawn) [II-157, N-((1-(4-(6-(Difluoromethyl)imidazo[1,2-b]pyridazin-3-yl)pyridin-2-yl)piperidin-3-yl)methyl)methanesulfonamide]
10 to 1000 | 500 to 5000 | CS(=O)(=O)NCC1(O)CCCN(c2cc(-c3cnc4ccc(C(F)F)nn34)ncn2)C1 (stereo not drawn) [II-158, N-((1-(6-(6-(Difluoromethyl)imidazo[1,2-b]pyridazin-3-yl)pyrimidin-4-yl)-3-hydroxypiperidin-3-yl)methyl)methanesulfonamide]
10 to 1000 | 500 to 5000 | CC(NS(C)(=O)=O)C1CN(c2cc(-c3cnc4ccc(C(F)F)nn34)ncn2)CCO1 (stereo not drawn) [II-159, N-(1-(4-(6-(6-(Difluoromethyl)imidazo[1,2-b]pyridazin-3-yl)pyrimidin-4-yl)morpholin-2-yl)ethyl)methanesulfonamide]
10 to 1000 | 500 to 5000 | O=C1CN(c2cc(-c3cnc4ccc(C(F)F)nn34)ccn2)CC2(CC2)N1 [II-160, 7-(4-(6-(Difluoromethyl)imidazo[1,2-b]pyridazin-3-yl)pyridin-2-yl)-4,7-diazaspiro[2.5]octan-5-one]
10 to 1000 | > 5000 | FC(F)c1ccc2ncc(-c3ccnc(N4CCC5(CCNCC5)CC4)c3)n2n1 [II-161, 3-(2-(3,9-Diazaspiro[5.5]undecan-3-yl)pyridin-4-yl)-6-(difluoromethyl)imidazo[1,2-b]pyridazine]
10 to 1000 | 500 to 5000 | OCC1CCCN(c2cc(-c3cnc4ccc(C(F)F)nn34)ccn2)C1 (stereo not drawn) [II-162, (1-(4-(6-(Difluoromethyl)imidazo[1,2-b]pyridazin-3-yl)pyridin-2-yl)piperidin-3-yl)methanol]
10 to 1000 | 500 to 5000 | CC(=O)N1CCCN(c2cc(-c3cnc4ccc(C(F)F)nn34)ccn2)CC1 [II-163, 1-(4-(4-(6-(Difluoromethyl)imidazo[1,2-b]pyridazin-3-yl)pyridin-2-yl)-1,4-diazepan-1-yl)ethanone]
10 to 1000 | 500 to 5000 | O=C1CCN(c2cc(-c3cnc4ccc(C(F)F)nn34)ccn2)CCN1 [II-164, 1-(4-(6-(Difluoromethyl)imidazo[1,2-b]pyridazin-3-yl)pyridin-2-yl)-1,4-diazepan-5-one]
10 to 1000 | > 5000 | O=C1CCC2CN(c3cc(-c4cnc5ccc(C(F)F)nn45)ccn3)CCN12 (stereo not drawn) [II-167, 2-(4-(6-(Difluoromethyl)imidazo[1,2-b]pyridazin-3-yl)pyridin-2-yl)hexahydropyrrolo[1,2-a]pyrazin-6(2H)-one]
10 to 1000 | 500 to 5000 | OCCC1CCN(c2cc(-c3cnc4ccc(C(F)F)nn34)ccn2)CC1 [II-168, 2-(1-(4-(6-(Difluoromethyl)imidazo[1,2-b]pyridazin-3-yl)pyridin-2-yl)piperidin-4-yl)ethanol]
10 to 1000 | > 5000 | OC[C@@H]1CN(c2cc(-c3cnc4ccc(C(F)F)nn34)ccn2)CCN1 [II-169, (S)-(4-(4-(6-(Difluoromethyl)imidazo[1,2-b]pyridazin-3-yl)pyridin-2-yl)piperazin-2-yl)methanol]
10 to 1000 | 500 to 5000 | COCC(=O)N1CCN(c2cc(-c3cnc4ccc(C(F)F)nn34)ccn2)CC1 [II-170, 1-(4-(4-(6-(Difluoromethyl)imidazo[12-b]pyridazin-3-yl)pyridin-2-yl)piperazin-1-yl)-2-methoxyethanone]
10 to 1000 | 500 to 5000 | CC(=O)N1CCN(c2cncc(-c3cnc4ccc(C(F)F)nn34)c2)CC1 [II-171, 1-(4-(5-(6-(Difluoromethyl)imidazo[12-b]pyridazin-3-yl)pyridin-3-yl)piperazin-1-yl)ethanone]
10 to 1000 | 500 to 5000 | O=C1NCC2CN(c3cc(-c4cnc5ccc(C(F)F)nn45)ccn3)CCN12 (stereo not drawn) [II-172, 7-(4-(6-(Difluoromethyl)imidazo[1,2-b]pyridazin-3-yl)pyridin-2-yl)hexahydroimidazo[1,5-a]pyrazin-3(2H)-one]

Ki [1] [nM] | IC50 [2] [nM] | SMILES
10 to 1000 | 500 to 5000 | O=C1NCC2CN(c3cc(-c4cnc5ccc(C(F)F)nn45)ccn3)CCN12 (stereo not drawn) [II-173, 7-(4-(6-(Difluoromethyl)imidazo[1,2-b]pyridazin-3-yl)pyridin-2-yl)hexahydroimidazo[1,5-a]pyrazin-3(2H)-one]
10 to 1000 | > 5000 | FC(F)c1ccc2ncc(-c3ccnc(N4CCn5cnnc5C4)c3)n2n1 [II-174, 7-(4-(6-(Difluoromethyl)imidazo[1,2-b]pyridazin-3-yl)pyridin-2-yl)-5,6,7,8-tetrahydro-[1,2,4]triazolo[4,3-a]pyrazine]
10 to 1000 | 500 to 5000 | O=C1NCC2CN(c3cc(-c4cnc5ccc(C(F)F)nn45)ccn3)CCN12 (stereo not drawn) [II-175, 7-(4-(6-(Difluoromethyl)imidazo[1,2-b]pyridazin-3-yl)pyridin-2-yl)hexahydroimidazo[1,5-a]pyrazin-3(2H)-one]
10 to 1000 | 500 to 5000 | CC(=O)N1CCN(c2cc(-c3cnc4ccc(C(F)F)nn34)ccn2)CC1 [II-176, 1-(4-(4-(6-(Difluoromethyl)imidazo[1,2-b]pyridazin-3-yl)pyridin-2-yl)piperazin-1-yl)ethanone]
< 10 | < 500 | CC(NS(C)(=O)=O)C1CN(c2cc(-c3cnc4ccc(C(F)F)nn34)ncn2)CCO1 (stereo not drawn) [II-177, N-(1-(4-(6-(6-(Difluoromethyl)imidazo[1,2-b]pyridazin-3-yl)pyrimidin-4-yl)morpholin-2-yl)ethyl)methanesulfonamide]
10 to 1000 | 500 to 5000 | O=C(NCCO)N1CCCC(c2cc(-c3cnc4ccc(C(F)F)nn34)ncn2)C1 (stereo not drawn) [II-178, 3-(6-(6-(difluoromethyl)imidazo[1,2-b]pyridazin-3-yl)pyrimidin-4-yl)-N-(2-hydroxyethyl)piperidine-1-carboxamide]
10 to 1000 | 500 to 5000 | CNc1ccc2ncc(-c3ccnc(N4CCCC(CNS(C)(=O)=O)C4)c3)n2n1 (stereo not drawn) [II-179, N-((1-(4-(6-(Methylamino)imidazo[1,2-b]pyridazin-3-yl)pyridin-2-yl)piperidin-3-yl)methyl)methanesulfonamide]
10 to 1000 | > 5000 | FC(F)c1ccc2ncc(-c3cc(C4CCCN(C5COC5)C4)ncn3)n2n1 (stereo not drawn) [II-180, 6-(Difluoromethyl)-3-(6-(1-(oxetan-3-yl)piperidin-3-yl)pyrimidin-4-yl)imidazo[1,2-b]pyridazine]
> 1000 | > 5000 | CS(=O)(=O)N1CC2CCN(c3cc(-c4cnc5ccc(C(F)F)nn45)ncn3)CC21 (stereo not drawn) [II-181, 6-(Difluoromethyl)-3-(6-(8-(methylsulfonyl)-3,8-diazabicyclo[4.2.0]octan-3-yl)pyrimidin-4-yl)imidazo[1,2-b]pyridazine]
10 to 1000 | > 5000 | CC(=O)N1CCN(c2cc(-c3cnc4ccc(OC(F)F)nn34)ccn2)CC1 [II-182, 1-(4-(4-(6-(Difluoromethoxy)imidazo[1,2-b]pyridazin-3-yl)pyridin-2-yl)piperazin-1-yl)ethanone]
10 to 1000 | 500 to 5000 | Cc1ccc2ncc(-c3ccnc(N4CCCC(CNS(C)(=O)=O)C4)c3)n2n1 (stereo not drawn) [II-183, N-((1-(4-(6-Methylimidazo[1,2-b]pyridazin-3-yl)pyridin-2-yl)piperidin-3-yl)methyl)methanesulfonamide]
10 to 1000 | 500 to 5000 | CS(=O)(=O)NCC1CN(c2cc(-c3cnc4ccc(Cl)nn34)ccn2)CCO1 (stereo not drawn) [II-184, N-((4-(4-(6-Chloroimidazo[1,2-b]pyridazin-3-yl)pyridin-2-yl)morpholin-2-yl)methyl)methanesulfonamide]
10 to 1000 | > 5000 | CC(=O)N1CCN(c2cc(-c3cnc4ccc(CO)nn34)ccn2)CC1 [II-185, 1-(4-(4-(6-(Hydroxymethyl)imidazo[1,2-b]pyridazin-3-yl)pyridin-2-yl)piperazin-1-yl)ethanone]
10 to 1000 | 500 to 5000 | CC(=O)N1CCN(c2cc(-c3cnc4ccc(C(F)F)nn34)ncn2)CC1 [II-186, 1-(4-(6-(6-(Difluoromethyl)imidazo[1,2-b]pyridazin-3-yl)pyrimidin-4-yl)piperazin-1-yl)ethan-1-one]
10 to 1000 | > 5000 | O=C1CCN(c2cc(-c3cnc4ccc(Cl)nn34)ccn2)CCN1 [II-187, 1-(4-(6-Chloroimidazo[1,2-b]pyridazin-3-yl)pyridin-2-yl)-1,4-diazepan-5-one]
10 to 1000 | 500 to 5000 | Clc1ccc2ncc(-c3ccnc(N4CCC5CNCC5C4)c3)n2n1 (stereo not drawn) [II-188]
